This passage reports IC50 results from patent publication US9078909B2, “Tertiary amines, medicaments containing said amines, use thereof and processes for the preparation thereof” (Boehringer Ingelheim International GmbH, priority 2012, dated 2015).

For orientation: IC50 means the concentration needed to halve the response being measured.

One assay deals with T1, epithelial sodium channel (ENaC) (Mus musculus, UniProt Q61180+Q9WU38+Q9WU39).
T1 construct: Mouse kidney M-1 cells were cultivated in DMEM; endogenous in cells; host or cells: mouse kidney M-1 cells (cortical collecting duct line), dexamethasone-treated, on transwell filters
T1 sequence (Q61180 1-699): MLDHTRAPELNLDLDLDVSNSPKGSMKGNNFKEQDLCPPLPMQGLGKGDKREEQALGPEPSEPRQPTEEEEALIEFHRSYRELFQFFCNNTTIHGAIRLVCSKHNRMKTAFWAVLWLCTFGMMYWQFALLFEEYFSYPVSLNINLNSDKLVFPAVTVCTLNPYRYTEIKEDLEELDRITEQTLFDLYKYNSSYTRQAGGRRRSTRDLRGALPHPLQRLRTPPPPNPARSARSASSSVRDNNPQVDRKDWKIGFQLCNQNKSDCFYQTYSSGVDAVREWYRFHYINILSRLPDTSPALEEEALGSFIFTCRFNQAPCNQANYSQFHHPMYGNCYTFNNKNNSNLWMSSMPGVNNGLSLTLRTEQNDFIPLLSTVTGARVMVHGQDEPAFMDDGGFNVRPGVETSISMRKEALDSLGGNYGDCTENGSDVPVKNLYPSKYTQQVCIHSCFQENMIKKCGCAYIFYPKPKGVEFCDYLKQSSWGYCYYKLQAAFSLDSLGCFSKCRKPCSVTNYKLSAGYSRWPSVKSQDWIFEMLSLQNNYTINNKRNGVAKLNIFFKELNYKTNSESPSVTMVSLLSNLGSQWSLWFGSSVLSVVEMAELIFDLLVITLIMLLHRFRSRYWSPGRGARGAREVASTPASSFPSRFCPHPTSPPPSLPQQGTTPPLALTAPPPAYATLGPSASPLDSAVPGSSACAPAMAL
T1 sequence (Q9WU38 1-638): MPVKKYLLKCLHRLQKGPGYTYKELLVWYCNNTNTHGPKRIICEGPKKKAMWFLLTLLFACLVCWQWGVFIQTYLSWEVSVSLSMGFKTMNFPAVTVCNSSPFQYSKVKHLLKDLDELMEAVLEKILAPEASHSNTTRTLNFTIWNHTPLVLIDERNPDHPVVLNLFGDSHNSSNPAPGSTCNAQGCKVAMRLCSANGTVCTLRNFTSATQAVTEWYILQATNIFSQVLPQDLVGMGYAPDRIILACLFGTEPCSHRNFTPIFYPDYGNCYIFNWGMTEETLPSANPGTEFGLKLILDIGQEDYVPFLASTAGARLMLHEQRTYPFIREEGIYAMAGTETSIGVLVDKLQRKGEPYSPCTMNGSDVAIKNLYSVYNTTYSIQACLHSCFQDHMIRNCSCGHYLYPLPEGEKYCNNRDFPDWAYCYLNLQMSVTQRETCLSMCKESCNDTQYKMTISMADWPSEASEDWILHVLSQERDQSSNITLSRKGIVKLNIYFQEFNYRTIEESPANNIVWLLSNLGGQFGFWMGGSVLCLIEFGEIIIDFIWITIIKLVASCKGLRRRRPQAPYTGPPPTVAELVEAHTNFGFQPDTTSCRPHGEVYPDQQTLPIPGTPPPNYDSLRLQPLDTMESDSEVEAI
T1 sequence (Q9WU39 1-655): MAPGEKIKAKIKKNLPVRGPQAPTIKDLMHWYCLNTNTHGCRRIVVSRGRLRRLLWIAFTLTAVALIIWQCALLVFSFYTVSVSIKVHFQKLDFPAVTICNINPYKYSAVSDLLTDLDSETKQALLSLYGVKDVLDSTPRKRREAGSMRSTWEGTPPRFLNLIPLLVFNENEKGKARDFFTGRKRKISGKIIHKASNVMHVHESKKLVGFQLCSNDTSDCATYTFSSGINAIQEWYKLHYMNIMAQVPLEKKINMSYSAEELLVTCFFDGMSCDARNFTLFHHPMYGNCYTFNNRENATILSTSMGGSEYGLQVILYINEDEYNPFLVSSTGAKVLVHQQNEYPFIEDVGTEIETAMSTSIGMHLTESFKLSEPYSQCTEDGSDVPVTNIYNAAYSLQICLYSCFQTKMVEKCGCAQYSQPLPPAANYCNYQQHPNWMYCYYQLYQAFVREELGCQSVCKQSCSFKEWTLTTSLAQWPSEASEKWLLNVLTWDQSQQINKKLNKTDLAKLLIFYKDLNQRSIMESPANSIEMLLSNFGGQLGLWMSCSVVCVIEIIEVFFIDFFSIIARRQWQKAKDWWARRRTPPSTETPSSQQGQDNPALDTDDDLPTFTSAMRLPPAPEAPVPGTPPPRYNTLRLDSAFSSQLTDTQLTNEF
Briefly: Ussing Chamber assay: inhibition of amiloride sensitive short circuit current (I_sc) in M-1 cells. The format is cell-based.
Conditions: not given
On the procedure: Ussing Chamber: Mouse kidney M-1 cells were cultivated in DMEM containing 5% FCS and 5 μM dexamethasone for 10 to 12 days on polyester transwell filters. Filters were inserted into a teflon-coated well-plate which fit into the in-house ussing chamber system. Prior to measurement the medium of M-1 cells was replaced with Caco-2 transport buffer (Invitrogen, Germany). During measurements, the Ussing chamber temperature was kept at 37° C. Short circuit currents (I_sc) were measured in the voltage-clamp mode using an in-house built amplifier (Boehringer Ingelheim, Biberach) with the software package Lab View for data acquisition and analysis. The transepithelial electrical resistance (TEER) was determined by the application of voltage steps of ±5 mV every 5 sec. Compounds were administered at a final concentration of 3 μM or at increasing concentrations (e.g. 1-3-10 μM) to the apical solution. At the end of each experiment the amiloride sensitive I_SC was measured by adding 3 μM amiloride to the apical compartment. Results are expressed as inhibition in percent of the amiloride effect or as IC50.
With the example compounds given above, the following IC50 values were determined in the Ussing Chamber assay: […]
With `CCOP(=O)(CN1CCC(NC(N)=NC(=O)c2nc(Cl)c(N)nc2N)CC1)OCC` [Example 4.16], the 50% inhibitory concentration (IC50) was 19 nM.

Still in this assay, the particulars now being: Ussing Chamber; mouse kidney M-1 cells on transwell filters; short circuit current; compound added to apical solution; 37° C.; read-out: IC50.
As for `CN1CCC(N(C)C(=O)c2ccc(NC(=O)CN3CCC(NC(N)=NC(=O)c4nc(Cl)c(N)nc4N)CC3)cc2)CC1` [Example 1.5], the IC50 is 6 nM.

In the case of `N=C(NC(=O)c1nc(Cl)c(N)nc1N)NC1CCN(CC(=O)Nc2ccccc2)CC1` [Example 1.1], the IC50 stood at 2 nM. Same read-out and setting: with `COCCN(CCOC)C(=O)CN1CCC(NC(N)=NC(=O)c2nc(Cl)c(N)nc2N)CC1` [Example 6.2] the figure was 27 nM. The same measure, in the same setting: with `CCOC(=O)C(C(=O)OCC)N1CCC(NC(N)=NC(=O)c2nc(Cl)c(N)nc2N)CC1` [Example 4.19] the figure was 9 nM; with `COCCOCCOCCOCCN1CCC(NC(N)=NC(=O)c2nc(Cl)c(N)nc2N)CC1` [Example 4.12], 55 nM; with `COC(=O)CN1CCC(NC(N)=NC(=O)c2nc(Cl)c(N)nc2N)CC1` [Example 4.11], 27 nM. Consider `NC(=NC(=O)c1nc(Cl)c(N)nc1N)NC1CCN(CC(=O)NCc2ccccc2)CC1` [Example 1.23], for which the IC50 was determined as 3 nM. On the same count and under the same terms, with `NC(=NC(=O)c1nc(Cl)c(N)nc1N)NC1CCN(CC(=O)Nc2cccnc2)CC1` [Example 1.17] the figure was 7 nM; with `NC(=NC(=O)c1nc(Cl)c(N)nc1N)NC1CCN(CC(=O)Nc2cccc(S(=O)(=O)O)c2)CC1` [Example 1.20], 17 nM; with `NC(=NC(=O)c1nc(Cl)c(N)nc1N)NC1CCN(CC(=O)NCc2ccc(N3CCNC3=O)cc2)CC1` [Example 6.13], 3 nM. For the molecule `CN1CCC(CN2CCC(NC(N)=NC(=O)c3nc(Cl)c(N)nc3N)CC2)CC1` [Example 4.17], the IC50 was 72 nM. Consider `NC(=NC(=O)c1nc(Cl)c(N)nc1N)NC1CCN(CC(=O)NCc2nccs2)CC1` [Example 6.11], for which the concentration for half-maximal inhibition (IC50) was found to be 3 nM. The same measure, in the same setting: with `NC(=NC(=O)c1nc(Cl)c(N)nc1N)NC1CCN(CCN2CCOCC2)CC1` [Example 4.7] the figure was 30 nM. Regarding `NC(=O)c1cccc(CNC(=O)CN2CCC(NC(N)=NC(=O)c3nc(Cl)c(N)nc3N)CC2)c1` [Example 6.9], the IC50 turned out to be 8 nM. On the same count and under the same terms, with `Cn1ccc(NC(=O)CN2CCC(NC(N)=NC(=O)c3nc(Cl)c(N)nc3N)CC2)cc1=O` [Example 1.15] the figure was 4 nM; with `NC(=NC(=O)c1nc(Cl)c(N)nc1N)NC1CCN(C(C(=O)NCc2ccccc2)C(=O)NCc2ccccc2)CC1` [Example 4.20], 10 nM. Regarding `CCNC(=O)CN1CCC(NC(N)=NC(=O)c2nc(Cl)c(N)nc2N)CC1` [Example 1.33], the IC50 came out at 5 nM.

As for `COC(=O)c1ccccc1NC(=O)CN1CCC(NC(N)=NC(=O)c2nc(Cl)c(N)nc2N)CC1` [Example 1.18], the half-inhibitory concentration (IC50) was 0.3 nM. The same measure, in the same setting: with `CC(C)(C)OC(=O)C1CCN(C(=O)CN2CCC(NC(N)=NC(=O)c3nc(Cl)c(N)nc3N)CC2)CC1` [Example 4.24] the figure was 17 nM; with `CN1CCN(c2cccc(CNC(=O)CN3CCC(NC(N)=NC(=O)c4nc(Cl)c(N)nc4N)CC3)c2)CC1` [Example 6.10], 3 nM; with `Cc1ccc(CNC(=O)CN2CCC(NC(N)=NC(=O)c3nc(Cl)c(N)nc3N)CC2)o1` [Example 1.27], 4 nM. For the molecule `CCCCNC(=O)CN1CCC(NC(N)=NC(=O)c2nc(Cl)c(N)nc2N)CC1` [Example 6.6], the IC50 turned out to be 1 nM. As to `CN(C(=O)CN1CCC(NC(N)=NC(=O)c2nc(Cl)c(N)nc2N)CC1)c1ccccc1` [Example 1.22], the IC50 worked out at 22 nM.

Take `CCN(CC)CCOc1ccc(NC(=O)CN2CCC(NC(N)=NC(=O)c3nc(Cl)c(N)nc3N)CC2)cc1` [Example 1.12]: the IC50 was determined as 2 nM. The same measure, in the same setting: with `COCCNC(=O)CN1CCC(NC(N)=NC(=O)c2nc(Cl)c(N)nc2N)CC1` [Example 6.12] the figure was 2 nM; with `COC(=O)c1cccc(CNC(=O)CN2CCC(NC(N)=NC(=O)c3nc(Cl)c(N)nc3N)CC2)c1` [Example 6.5], 6 nM. Regarding `CN(C)CC(=O)N(C)c1ccc(NC(=O)CN2CCC(NC(N)=NC(=O)c3nc(Cl)c(N)nc3N)CC2)cc1` [Example 1.7], the IC50 turned out to be 1 nM. Turning to `NC(=NC(=O)c1nc(Cl)c(N)nc1N)NC1CCN(CC(=O)OCc2ccccc2)CC1` [Example 4.9], the IC50 was 6 nM. The same measure, in the same setting: with `CS(=O)(=O)c1ccc(CNC(=O)CN2CCC(NC(N)=NC(=O)c3nc(Cl)c(N)nc3N)CC2)cc1` [Example 1.25] the figure was 3 nM.

For the molecule `NC(=NC(=O)c1nc(Cl)c(N)nc1N)NC1CCN(CC(=O)Nc2cccc(CN3CCOCC3)c2)CC1` [Example 1.9], the IC50 stood at 1 nM. Same read-out and setting: with `CCSCCN1CCC(NC(N)=NC(=O)c2nc(Cl)c(N)nc2N)CC1` [Example 4.2] the figure was 10 nM. `COC(=O)c1ccc(CNC(=O)CN2CCC(NC(N)=NC(=O)c3nc(Cl)c(N)nc3N)CC2)cc1` [Example 6.4]: the half-inhibitory concentration (IC50) was 3 nM. Still for that read-out and setting: with `CCOC(=O)CNC(=O)CN1CCC(NC(N)=NC(=O)c2nc(Cl)c(N)nc2N)CC1` [Example 4.4] the figure was 11 nM. On the same count and under the same terms, with `N=C(NC(=O)c1nc(Cl)c(N)nc1N)NC1CCN(CC(=O)O)CC1` [Example 5.1] the figure was 266 nM; with `N#CCN1CCC(NC(=N)NC(=O)c2nc(Cl)c(N)nc2N)CC1` [Example 7.1], 35 nM. On the same count and under the same terms, with `NC(=NC(=O)c1nc(Cl)c(N)nc1N)NC1CCN(CC(=O)NCc2ccccc2SC(F)(F)F)CC1` [Example 6.3] the figure was 1 nM; with `NC(=NC(=O)c1nc(Cl)c(N)nc1N)NC1CCN(CC(=O)Nc2ccc(CN3CCCCC3)cc2)CC1` [Example 1.8], 1 nM; with `CC(C)(C)NC(=O)CN1CCC(NC(N)=NC(=O)c2nc(Cl)c(N)nc2N)CC1` [Example 4.22], 4 nM.

`CCS(=O)(=O)CCN1CCC(NC(N)=NC(=O)c2nc(Cl)c(N)nc2N)CC1` [Example 4.3]: the IC50 was 10 nM. As for `NC(=NC(=O)c1nc(Cl)c(N)nc1N)NC1CCN(CC(=O)N2CCSCC2)CC1` [Example 4.15], the IC50 turned out to be 12 nM. On the same count and under the same terms, with `NC(=NC(=O)c1nc(Cl)c(N)nc1N)NC1CCN(CC(=O)NCc2ccc(S(N)(=O)=O)cc2)CC1` [Example 1.26] the figure was 3 nM; with `NC(=NC(=O)c1nc(Cl)c(N)nc1N)NC1CCN(CCCS(=O)(=O)O)CC1` [Example 4.23], 147 nM.
